# Data taken from US4711877A, “6-pen-vasopressin compounds” (SmithKline Beckman Corporation, priority 1985, dated 1987).
# Positions of bridges follow the written chain, without caps; N, C: chain ends. Non-standard residues stand in square brackets, D forms with d. Residues, ends and D or L forms follow the SMILES beside them. Pen = CC(C)(S)[C@H](N)C(=O)O; Mpa = O=C(O)CCS
# How the values were obtained:
# [1] = molecular target: T1, vasopressin receptor sites (Rattus norvegicus, UniProt P30560); assay: Binding activity in rat liver tissue (KB), protocol of Stassen et al.
# T1 construct: from tissue; host or cells: rat liver tissue
# T1 sequence (P30560 whole entry): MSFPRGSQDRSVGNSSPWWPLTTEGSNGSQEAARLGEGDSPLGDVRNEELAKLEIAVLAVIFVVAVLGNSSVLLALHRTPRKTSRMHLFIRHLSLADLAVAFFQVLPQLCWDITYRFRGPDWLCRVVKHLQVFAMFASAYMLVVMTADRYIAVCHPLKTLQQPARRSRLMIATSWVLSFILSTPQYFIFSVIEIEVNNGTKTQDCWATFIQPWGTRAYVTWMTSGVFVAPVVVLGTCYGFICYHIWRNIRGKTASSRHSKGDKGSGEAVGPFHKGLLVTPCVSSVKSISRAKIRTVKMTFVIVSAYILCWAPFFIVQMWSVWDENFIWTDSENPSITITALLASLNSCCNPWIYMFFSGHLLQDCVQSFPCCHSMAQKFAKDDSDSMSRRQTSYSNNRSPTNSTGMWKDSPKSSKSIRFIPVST
# Description: (§1) The binding activity in hog and rat liver tissue, as well as the antagonistic activity in the hydropenic rat, of the compounds according to this invention is illustrated by the following results which were obtained using testing protocols which are described in the literature [F. Stassen, J. Pharmacology and Experimental Therapeutics, 223 50 (1982)]: […]
# [2] = molecular target: T2, vasopressin receptor sites (Sus scrofa, UniProt P32307); assay: Binding activity in hog tissue (KB), protocol of Stassen et al.
# T2 construct: from tissue; renal medulla by own knowledge of the cited protocol
# T2 sequence (P32307 whole entry): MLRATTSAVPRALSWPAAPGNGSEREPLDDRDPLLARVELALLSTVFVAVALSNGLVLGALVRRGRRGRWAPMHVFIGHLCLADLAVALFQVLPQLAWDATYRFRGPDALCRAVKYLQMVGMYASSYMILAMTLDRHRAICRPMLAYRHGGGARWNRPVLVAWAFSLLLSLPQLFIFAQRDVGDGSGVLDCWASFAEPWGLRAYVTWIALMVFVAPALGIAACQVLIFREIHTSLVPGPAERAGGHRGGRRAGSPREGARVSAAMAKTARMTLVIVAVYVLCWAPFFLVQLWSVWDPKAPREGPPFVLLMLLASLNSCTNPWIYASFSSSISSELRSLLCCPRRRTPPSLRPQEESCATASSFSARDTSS
# Description: as §1
SMILES,Kb [1] [nM],Kb [2] [nM]
"CCOc1ccc(C[C@H]2NC(=O)CCSSC(C)(C)[C@@H](C(=O)N3CCC[C@H]3C(=O)N[C@@H](CCCNC(=N)N)C(=O)NCC(N)=O)NC(=O)[C@H](CC(N)=O)NC(=O)[C@H](C(C)C)NC(=O)[C@H](Cc3ccccc3)NC2=O)cc1 [Compound A, Mpr--D-Tyr(Et)--Phe--Val--Asn--Pen--Pro--Arg--Gly(NH2)] ([Mpa][dY](Et)FVN[Pen]PRG-NH2; disulfide 1-6)",110,190
"CCOc1ccc(C[C@H]2NC(=O)CCSSC[C@@H](C(=O)N3CCC[C@H]3C(=O)N[C@@H](CCCNC(=N)N)C(=O)NCC(N)=O)NC(=O)[C@H](CC(N)=O)NC(=O)[C@H](C(C)C)NC(=O)[C@H](Cc3ccccc3)NC2=O)cc1 [Compound B, Mpr--D-Tyr(Et)--Phe--Val--Asn--Cys--Pro--Arg--Gly(NH2), reference compound] ([Mpa][dY](Et)FVNCPRG-NH2; disulfide 1-6)",–,9900
